Measurements from PMC7016805, “RK-33 Is a Broad-Spectrum Antiviral Agent That Targets DEAD-Box RNA Helicase DDX3X” (Cells, 2020).
pKd: −log10 of the molar value.

Biological target: T1, DEAD-box helicase 3 X-linked (DDX3X) (Homo sapiens, UniProt O00571)
T1 construct: residues 1–580, N-terminal 6His tag
Experiment: ITC (one-site model); supported by multi-wavelength AUC, ATPase assay (IC50 […]) and RNA unwinding assay (IC50 […])
Assay type: binding

T1 sequence (O00571 1-580): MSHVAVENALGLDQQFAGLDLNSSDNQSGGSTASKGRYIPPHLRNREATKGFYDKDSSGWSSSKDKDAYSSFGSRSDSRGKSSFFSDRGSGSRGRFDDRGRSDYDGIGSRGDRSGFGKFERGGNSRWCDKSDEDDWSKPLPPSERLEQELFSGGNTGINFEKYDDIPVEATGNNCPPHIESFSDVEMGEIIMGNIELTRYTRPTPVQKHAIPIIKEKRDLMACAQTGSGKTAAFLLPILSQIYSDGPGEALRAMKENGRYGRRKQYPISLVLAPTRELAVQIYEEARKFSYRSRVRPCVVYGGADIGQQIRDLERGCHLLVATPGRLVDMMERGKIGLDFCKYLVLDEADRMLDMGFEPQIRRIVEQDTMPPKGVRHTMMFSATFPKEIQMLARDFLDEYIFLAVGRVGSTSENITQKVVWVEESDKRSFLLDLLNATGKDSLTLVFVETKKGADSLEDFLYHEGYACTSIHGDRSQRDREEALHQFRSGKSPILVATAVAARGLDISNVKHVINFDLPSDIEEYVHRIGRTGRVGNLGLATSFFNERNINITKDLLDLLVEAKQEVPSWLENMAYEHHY

pKd: 4.48
SMILES: COc1ccc(Cn2cnc3c4ncn(Cc5ccc(OC)cc5)c4nc(=O)nc32)cc1 [RK-33]
